From patent US20240409536A1, “COMPOUNDS AND METHODS FOR MODULATING SPLICING” (REMIX THERAPEUTICS INC., priority 2021, published 2024)

Key:
HTT mRNA = assay: Splicing RT-qPCR assay, HTT canonical (CJ) and alternative (AJ) junction mRNA; type: cell-based; conditions: Homo sapiens, A673 or K562 cells, 24 hours; for IC50: decrease in canonical junction mRNA; for AC50: increase in alternative junction mRNA
Outline: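 Canonical and alternative junction mRNAs measured by cell-lysate one-step RT-qPCR, normalized to PPIA in A673 or GAPDH/GUSB in K562. Cells received compound for 24 h at 37 °C, 5% CO2, 11-point 3-fold series from 10 uM final top dose, DMSO at most 0.25%.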

Target C = assay: HiBiT protein abundance assay, Target C (K562 HiBiT knock-in cells); type: cell-based, human; conditions: 24 hours
Outline: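 Protein abundance read by HiBiT lytic luminescence after 24 h compound exposure (37 °C) of knock-in K562 cells, 10000 cells/well in IMDM+1% FBS. Dosing: 10 points, 3-fold, top 10 μM final, ≤0.25% DMSO. Four-parameter logistic fit gave concentration reducing abundance to 50% of untreated control.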

Structure (SMILES)	IC50 (HTT mRNA)	IC50 (Target C)	AC50 (HTT mRNA)
CN[C@H]1CCN(c2ccc(C(=O)Nc3cc(F)c4nc(C)cn4c3)c3nnccc23)C1 [Compound 239, (S)—N-(8-fluoro-2-methylimidazo[1,2-a]pyridin-6-yl)-5-(3-(methylamino)pyrrolidin-1-yl)cinnoline-8-carboxamide]	1 to 10 µM	1 to 10 µM	1 to 10 µM
Cc1cn2cc(NC(=O)c3ccc(N4CCC(NC5CC5)CC4)c4nccnc34)cc(F)c2n1 [Compound 258, 8-(4-(cyclopropylamino)piperidin-1-yl)-N-(8-fluoro-2-methylimidazo[1,2-a]pyridin-6-yl)quinoxaline-5-carboxamide]	0.1 to 1 µM	0.1 to 1 µM	0.1 to 1 µM
CNC1CCN(c2ccc(C(=O)Nc3cc(F)c4nc(C)cn4c3)c3nc(OCCOC)ccc23)C1 (stereo not drawn) [Compound 234]	1 to 10 µM	1 to 10 µM	1 to 10 µM
Cc1cn2cc(NC(=O)c3ccc(N4CC(C)NC(C)C4)c4nc(C)c(C)nc34)cc(F)c2n1 (stereo not drawn) [Compound 257]	1 to 10 µM	1 to 10 µM	1 to 10 µM
Cc1cn2cc(NC(=O)c3ccc(N4CCN[C@H](C5CC5)C4)c4nccnc34)cc(F)c2n1 [Compound 253, 8-[(3R)-3-cyclopropylpiperazin-1-yl]-N-{8-fluoro-2-methylimidazo[1,2-a]pyridin-6-yl}quinoxaline-5-carboxamide]	1 to 10 µM	1 to 10 µM	1 to 10 µM
Cc1cn2cc(NC(=O)c3ccc(N4C[C@@H](C)N[C@@H](C5CC5)C4)c4nccnc34)cc(F)c2n1 [Compound 266, 8-((3S,5R)-3-cyclopropyl-5-methylpiperazin-1-yl)-N-(8-fluoro-2-methylimidazo[1,2-a]pyridin-6-yl)quinoxaline-5-carboxamide]	1 to 10 µM	0.1 to 1 µM	0.1 to 1 µM
C[C@@H]1CN(c2ccc(C(=O)Nc3ccc4nc(N(C)C)oc4c3)c3nccnc23)C[C@H](C)N1 [Compound 290]	> 10 µM	> 10 µM	> 10 µM
Cc1cn2cc(NC(=O)c3ccc(N4CCN[C@@H](C(C)C)C4)c4nccnc34)cc(F)c2n1 [Compound 250, N-{8-fluoro-2-methylimidazo[1,2-a]pyridin-6-yl}-8-[(3S)-3-isopropylpiperazin-1-yl]quinoxaline-5-carboxamide]	> 10 µM	> 10 µM	> 10 µM
COc1nc(NC(=O)c2ccc(N3C[C@@H](C)N[C@@H](C)C3)c3nccnc23)nc2cn(C)nc12 [Compound 287]	> 10 µM	> 10 µM	> 10 µM
Cc1cn2cc(NC(=O)c3ccc(N4C[C@@H](C)N[C@@H](C)C4)c4nccnc34)nc(C)c2n1 [Compound 288]	1 to 10 µM	1 to 10 µM	1 to 10 µM
Cc1cn2cc(NC(=O)c3c(F)cc(N4C[C@@H](C)N[C@@H](C)C4)c4nccnc34)cc(F)c2n1 [Compound 261, cis-8-[(3R,5S)-3,5-dimethylpiperazin-1-yl]-6-fluoro-N-{8-fluoro-2-methylimidazo[1,2-a]pyridin-6-yl}quinoxaline-5-carboxamide]	1 to 10 µM	1 to 10 µM	1 to 10 µM
COc1cnc2c(N3CC[C@@H](N(C)C)C3)ccc(C(=O)Nc3cc(F)c4nc(C)cn4c3)c2n1 [Compound 244, 8-[(3R)-3-(dimethylamino)pyrrolidin-1-yl]-N-{8-fluoro-2-methylimidazo[1,2-a]pyridin-6-yl}-3-methoxyquinoxaline-5-carboxamide]	0.1 to 1 µM	0.1 to 1 µM	0.1 to 1 µM
Cc1cn2cc(NC(=O)c3ccc(N4C5CNCC54)c4nccnc34)cc(F)c2n1 (stereo not drawn) [Compound 262, 8-{3,6-diazabicyclo[3.1.0]hexan-6-yl}-N-{8-fluoro-2-methylimidazo[1,2-a]pyridin-6-yl}quinoxaline-5-carboxamide]	0.1 to 1 µM	0.1 to 1 µM	0.1 to 1 µM
CN[C@@H]1CCN(c2ccc(C(=O)Nc3cc(F)c4nc(C)cn4c3)c3nnccc23)C1 [Compound 238, (R)—N-(8-fluoro-2-methylimidazo[1,2-a]pyridin-6-yl)-5-(3-(methylamino)pyrrolidin-1-yl)cinnoline-8-carboxamide]	1 to 10 µM	1 to 10 µM	1 to 10 µM
Cn1cc2c(F)cc(NC(=O)c3ccc(N4CCNCC4)c4ccnnc34)cc2n1 [Compound 116]	> 10 µM	> 10 µM	> 10 µM
Cc1cn2cc(NC(=O)c3ccc([C@@]45CCNCC4C5)c4nccnc34)cc(F)c2n1 (stereo in doubt) [Compound 248, 8-{3-azabicyclo[4.1.0]heptan-6-yl}-N-{8-fluoro-2-methylimidazo[1,2-a]pyridin-6-yl}quinoxaline-5-carboxamide 2,2,2-trifluoroacetate]	1 to 10 µM	> 10 µM	> 10 µM
Cc1cn2cc(NC(=O)c3ccc(N4CCN[C@@H](C5CC5)C4)c4nccnc34)cc(F)c2n1 [Compound 252, 8-[(3S)-3-cyclopropylpiperazin-1-yl]-N-{8-fluoro-2-methylimidazo[1,2-a]pyridin-6-yl}quinoxaline-5-carboxamide]	> 10 µM	1 to 10 µM	> 10 µM
COc1ccc2c(N3C[C@@H](C)N[C@@H](C)C3)ccc(C(=O)Nc3cc(F)c4nc(C)cn4c3)c2n1 [Compound 268, 5-[(3R,5S)-3,5-dimethylpiperazin-1-yl]-N-{8-fluoro-2-methylimidazo[1,2-a]pyridin-6-yl}-2-methoxyquinoline-8-carboxamide]	1 to 10 µM	1 to 10 µM	1 to 10 µM
Cc1cn2cc(NC(=O)c3ccc(N4CCNCC4)c4ccnnc34)c(C)cc2n1 [Compound 119]	1 to 10 µM	1 to 10 µM	1 to 10 µM
Cc1cn2cc(NC(=O)c3ccc(N4C[C@@H](C)N[C@@H](C)C4)c4nccnc34)cc(C#N)c2n1 [Compound 294]	1 to 10 µM	> 10 µM	> 10 µM
COc1nc2c(N3C[C@@H](C)N[C@@H](C)C3)ccc(C(=O)Nc3cc(F)c4nc(C)cn4c3)c2nc1C [Compound 260, 8-((3R,5S)-3,5-dimethylpiperazin-1-yl)-N-(8-fluoro-2-methylimidazo[1,2-a]pyridin-6-yl)-2-methoxy-3-methylquinoxaline-5-carboxamide; 2,2,2-trifluoroacetate]	0.1 to 1 µM	1 to 10 µM	1 to 10 µM
COc1ncc2c(N3C[C@@H](C)N[C@@H](C)C3)ccc(C(=O)Nc3cc(F)c4nc(C)cn4c3)c2n1 [Compound 300]	0.1 to 1 µM	0.1 to 1 µM	0.1 to 1 µM
COc1nc2ccc(NC(=O)c3ccc(N4C[C@@H](C)N[C@@H](C)C4)c4nccnc34)cc2o1 [Compound 292]	> 10 µM	1 to 10 µM	> 10 µM

Continued, in another order:

IC50 (HTT mRNA)	IC50 (Target C)	Structure (SMILES)	AC50 (HTT mRNA)
1 to 10 µM	1 to 10 µM	Cc1cn2cc(NC(=O)c3ccc(N4CCNCC4)c4nncnc34)cc(F)c2n1 [Compound 345]	1 to 10 µM
1 to 10 µM	1 to 10 µM	Cc1cn2cc(NC(=O)c3ccc(N4C[C@H](C)N[C@@H](C)C4)c4nccnc34)cc(F)c2n1 [Compound 313]	1 to 10 µM
1 to 10 µM	> 10 µM	Cc1cn2cc(NC(=O)c3ccc(N4CCNC5(CC5)C4)c4cccnc34)cc(F)c2n1 [Compound 341]	1 to 10 µM
1 to 10 µM	> 10 µM	Cc1cn2cc(NC(=O)c3ccc(N4C[C@@H](C)N[C@@H](C)C4)c4nccnc34)cc(Cl)c2n1 [Compound 304]	> 10 µM
> 10 µM	1 to 10 µM	Cc1cn2cc(NC(=O)c3ccc(N4C[C@@H](C)N(O)[C@@H](C)C4)c4nccnc34)cc(F)c2n1 [Compound 355]	1 to 10 µM
1 to 10 µM	1 to 10 µM	Cc1cn2cc(NC(=O)c3ccc(N4CCN(CCO)C5(CC5)C4)c4nccnc34)cc(F)c2n1 [Compound 369]	1 to 10 µM
> 10 µM	> 10 µM	Cc1ccc2cc(NC(=O)c3ccc(N4C[C@@H](C)N[C@@H](C)C4)c4nccnc34)cc(F)c2n1 [Compound 353]	> 10 µM
0.1 to 1 µM	1 to 10 µM	Cc1cn2cc(NC(=O)c3ccc(N4CCN(C)C5(CC5)C4)c4nccnc34)cc(F)c2n1 [Compound 364]	1 to 10 µM
> 10 µM	> 10 µM	CNc1nc(NC(=O)c2ccc(N3C[C@@H](C)N[C@@H](C)C3)c3nccnc23)cn2cc(C)nc12 [Compound 308]	> 10 µM
1 to 10 µM	1 to 10 µM	Cc1cn2cc(NC(=O)c3ccc(N4CCC(N)(CF)CC4)c4nccnc34)cc(F)c2n1 [Compound 356]	> 10 µM
1 to 10 µM	1 to 10 µM	C[C@@H]1CN(c2ccc(C(=O)Nc3cc(F)c4cnccc4c3)c3nccnc23)C[C@H](C)N1 [Compound 343]	1 to 10 µM
0.1 to 1 µM	1 to 10 µM	CCN1CCN(c2ccc(C(=O)Nc3cc(F)c4nc(C)cn4c3)c3nccnc23)CC12CC2 [Compound 365]	1 to 10 µM
> 10 µM	> 10 µM	C[C@@H]1CN(c2ccc(C(=O)Nc3cc(F)c4nc(O)cn4c3)c3nccnc23)C[C@H](C)N1 [Compound 360]	> 10 µM
> 10 µM	> 10 µM	Cc1cn2cc(NC(=O)c3ccc(N4C[C@@H](C)N[C@@H](C)C4)c4ncccc34)cc(F)c2n1 [Compound 358]	> 10 µM
> 10 µM	> 10 µM	Cc1cn2cc(NC(=O)c3ccc(N4C[C@@H](C)N[C@@H](C)C4)c4nccnc34)nc2c(C)n1 [Compound 359]	> 10 µM
